{"source": "patent US8637495B2", "about": "“Osteoarthritis diet formulations” (Nestec S.A., priority 2004, dated 2014)", "origin": "cited, not measured here", "key": {"[1]": {"conditions": "orally administered"}, "[2]": {"system": "human patients with OA of the knee"}}, "data": [{"molecule": "N[C@H]1C(O)O[C@H](CO)[C@@H](O)[C@@H]1O", "note": "(some centres unmarked) [glucosamine, Glucosamine]", "values": [{"measurement": "radiolabel detected in exhaled CO2", "setting": "[1]", "value": 70, "unit": "%"}, {"measurement": "retained in tissue", "setting": "[1]", "value": "approximately 10%"}, {"measurement": "fraction non-ionized", "setting": "[1]; physiologic pH of the small intestine", "value": "More than 50%"}, {"measurement": "clinical signs of OA", "setting": "[2]; 1500 mg glucosamine per day, human, OA of the knee", "value": "significant improvement"}, {"measurement": "long-term progression of OA", "setting": "[2]; oral, two studies, patients followed for three years", "value": "efficiently inhibited"}]}]}
